Source: article PMC12114510, “Antimicrobial, Antioxidant, and α-Glucosidase-Inhibitory Activities of Prenylated p-Hydroxybenzoic Acid Derivatives from Oberonia ensiformis” (Molecules, 2025)
Structures can show the parent of a compound that is named as a salt.

Tests used:
[1] = system: α-glucosidase; test: α-Glucosidase inhibition assay (PNPG method); type: biochemical; conditions: for IC50, inhibition of α-glucosidase: mean ± SD, PNPG method, 5 and 6 tested as epimeric mixtures
Experimental: The inhibitory activity of the obtained compounds on α-glucosidase was evaluated using the method mentioned in previous studies with minor modifications. […] Subsequently, 50 μL of 5.0 mM p-Nitrophenyl α-D-glucopyranoside (pNPG, dissolved in 0.1 M PB, pH 6.8) was added to the mixture. After incubation at 37 °C for 30 min, the reaction was stopped by adding 80 μL of 0.2 M sodium carbonate solution (dissolved in ultrapure water) to the reaction system. The absorbance value was measured at 405 nm using a microplate reader. […] Ac: Absorbance of the reaction system containing 20 μL PBS, 50 μL α-glucosidase, and 50 μL pNPG.

[2] = DPPH radical scavenging (antioxidant) assay; conditions: for IC50, clearance rate of DPPH: mean ± SD, 5 and 6 tested as epimeric mixtures
Experimental: The activity screening of 18 compounds isolated from O. ensiformis was carried out using 96-well plates and an enzyme labeler with DPPH methanol solution as substrate (0.15 mmol/L) and sodium ascorbate as positive control. The gradient mass concentration of the samples to be tested was 200, 100, 50, 25, 12.5 μg/mL and then divided into a sample group (100 μL DPPH solution + 100 μL sample, A), a sample control group (100 μL methanol + 100 μL sample, A0), and a negative control (100 μL DPPH solution + 100 μL methanol, A1). The samples to be tested were fully reacted under light-avoiding conditions, and the OD values were determined at 517 nm after 30 min [23]. The experiments were performed three times in parallel, and the DPPH radical scavenging rate was calculated. The scavenging rate of DPPH radical was calculated according to the following equation [24].E = [1 − (A − Aa)/Ab] × 100% A:100 μL of test compounds or L-Ascorbic Acid Sodium Salt and 100 μL of DPPH. Aa: 100 μL of test compounds or L-Ascorbic Acid Sodium Salt and 100 μL of MeOH. Ab: 100 μL of MeOH and 100 μL of DPPH.

Structure (SMILES) | inhibitory activity against α-glucosidase (in words) [1] | DPPH radical scavenging activity [2] | IC50, clearance rate of DPPH [2] | IC50, inhibition of α-glucosidase [1]
C=C(C)C(O)Cc1cc(C(=O)O)cc2c1OC(C)(C)C=C2 (centres unmarked) [Compound 10, liparacid A] | no significant activity | – | – | –
CC(C)=CCc1cc(C(=O)O)cc(CC=C(C)C)c1O [Compound 12, nervogenic acid] | strong | > 50% | 185.36 ± 1.96 µg/mL | 34.03 ± 0.16 µg/mL
C=C(C)C(O)Cc1cc(C(=O)O[C@@H]2CC(C(=O)O)=C[C@@H](O)[C@H]2O)cc(CC=C(C)C)c1O (some centres unmarked) [Compound 6, oberoniaensiformisin F] | moderate | > 50% | 173.76 ± 23.92 µg/mL | 58.07 ± 6.22 µg/mL
CC(C)(O)CCc1cc(C(=O)O)cc2c1OC(C)(C)C=C2 [Compound 16, 1iparacids C] | no significant activity | – | – | –
CC(C)=CCc1cc(C(=O)O[C@@H]2CC(C(=O)O)=C[C@@H](O)[C@H]2O)cc2c1OC(C)(C)C=C2 [Compound 13, oberoniamyosurusin L] | moderate | – | – | 86.53 ± 1.08 µg/mL
C=C(C)C(O)Cc1cc(C(=O)O)cc(CCC(C)(C)O)c1O (centres unmarked) [Compound 11, oberoniamyosurusin E] | no significant activity | – | – | –
O=C1O[C@H]([C@@H](O)CO)C(O)=C1O [L-ascorbate, L-Ascorbic Acid Sodium Salt, reference compound] | – | – | 2.37 ± 0.11 µg/mL | –
C=C(C)C(O)Cc1cc(C(=O)OC(C)C(C)(O)C(=O)O)cc(CC=C(C)C)c1O (centres unmarked) [Compound 5, Oberoniaensiformisin E] | weak | – | – | 106.10 ± 2.12 µg/mL
CC(C)(O)CCc1cc(C(=O)O)cc(CCC(C)(C)O)c1O [Compound 17, oberoniamyosurusin F] | no significant activity | – | – | –
CC(C)=CCc1cc(C(=O)O)cc2c1OC(C(C)(C)O)C2 (centres unmarked) [Compound 15, oberoniamyosurusins I] | strong | – | – | 38.80 ± 4.43 µg/mL
C=C(C)C(O)Cc1cc(C(=O)O)cc(CC(O)C(=C)C)c1O (centres unmarked) [Compound 18, liparacid B] | no significant activity | – | – | –
